Experimental data from ChEMBL document CHEMBL6074673, “Discovery of UCB9386: A Potent, Selective, and Brain-Penetrant Nuak1 Inhibitor Suitable for In Vivo Pharmacological Studies” (J Med Chem, 2024).
≈ marks a conversion by molar mass, not a printed value.

Assays:
[1] = Metabolic stability in mouse liver microsomes assessed as intrinsic clearance; assay type: ADME, Microsome
[2] = human, microsomes
in vivo = conditions: mouse, brain, 0.5 mg/kg
Description: Ratio of unbound drug concentration in brain to plasma of mouse at 0.5 mg/kg

in vitro [3] = conditions: human, Caco-2
Description: Apparent permeability in human Caco-2 cells

physchem [4] = conditions: buffer, pH 7.4
Description: Thermodynamic solubility of compound at pH 7.4

in vitro [5] = conditions: human, hepatocytes
Description: Metabolic stability in human hepatocytes assessed as intrinsic clearance measured per million cells

in vitro [6] = conditions: mouse, hepatocytes
Description: Metabolic stability in mouse hepatocytes assessed as intrinsic clearance measured per million cells

[7] = Dissociation constant, pKa of compound; assay type: physicochemical
physchem [8] = conditions: buffer, pH 7.4; remark: listed apart in the source
Description: Photostability of compound at pH 7.4 under ambient light assessed as compound remaining at 250 uM measured after 24 hrs by 2 LC-MS analysis

Compound | CLH [1] [mL/min/g] | CLH [2] [mL/min/g] | Kp uu (in vivo) | Papp (in vitro [3]) [×10⁻⁶ cm/s] | solubility thermodynamic (physchem [4]) [µM] | hepatocyte CLint (in vitro [5]) [µL/min/1e6 cells] | hepatocyte CLint (in vitro [6]) [µL/min/1e6 cells] | pKa [7] | remaining at 24 h, 250 µM (physchem [8]) [%]
O=c1c(N2CCC2)nc2cnc(-c3cnc4cccnn34)cc2n1Cc1ccccc1 | 226 | 63 | – | – | – | – | – | – | –
C[C@H](c1ccccc1)n1c(=O)c(N2CC3CC(C2)N3)nc2cnc(-c3cnc4cccnn34)cc21 | – | 21 | 0.026 | 8.3 | 356 (≈ 165 µg/mL) | 9 | 6 | – | –
CN1C[C@H]2C[C@@H]1CN2c1nc2cnc(-c3cnc4cccnn34)cc2n(Cc2ccccc2)c1=O | 58 | 83 | 0.5 | 12.5 | 456 (≈ 212 µg/mL) | – | – | 8.4 | –
O=c1c(N2C[C@H]3C[C@@H]2CN3)nc2cnc(-c3cnc4cccnn34)cc2n1Cc1ccccc1 | 3 | 16 | – | 8.6 | – | – | – | 8.8 | –
O=c1c(N2CCNCC2)nc2cnc(-c3cnc4cccnn34)cc2n1Cc1ccccc1 | 32 | 42 | – | 10.7 | < 1 | – | – | 8.5 | –
O=c1c(N2CC3CC(C2)N3)nc2cnc(-c3cnc4cccnn34)cc2n1Cc1ccccc1 | 10 | 22 | 0.07 | 13.2 | 2 (≈ 0.901 µg/mL) | – | – | 8.7 | –
O=c1c(N2CCOCC2)nc2cnc(-c3cnc4cccnn34)cc2n1Cc1ccccc1 | 52 | 29 | – | – | – | – | – | – | –
CC1Oc2ccc(-c3cnc4ccccn34)nc2N(Cc2ccccc2)C1=O (stereo not drawn) | – | – | – | – | – | – | – | – | 39
O=c1c(C(F)F)nc2cnc(-c3cnc4cccnn34)cc2n1Cc1ccccc1 | 11 | 4 | – | 13.9 | – | – | – | – | –
CN1CCN(c2nc3cnc(-c4cnc5cccnn45)cc3n(Cc3ccccc3)c2=O)CC1 | 227 | 73 | – | 23.6 | < 1 | – | – | 7.6 | –
O=c1cnc2cnc(-c3cnc4cccnn34)cc2n1Cc1ccccc1 | – | 34 | – | 24.4 | – | – | – | – | > 97
